Measurements reported in patent US20240059739A1, “PEPTIDES FOR INCREASING DRUG DELIVERY TO CANCER” (Chapman University, priority 2022, published 2024).
Where a SMILES comes first, the peptide text is derived from it.

Tests used:
[1] = Serum stability (RP-HPLC AUC of intact peptide); assay type: in vitro ADME
Method: Serum stability. Human serum (250 μL) was thawed to room temperature and was added to DMEM media (650 μL). The mixture was kept in a 37° C. incubator to mimic human body temperature for 15 min. The peptide (100 μL, 1 mM) was dissolved (dispersed) in sterile water. The peptide solution was added to the pre-warmed human serum and DMEM mixture. The mixture was incubated at 37° C. At different time points (0, 0.5, 1, 5, and 24 h) aliquots (100 μL) were removed and added to methanol (200 μL). Each time point sample was kept at 4° C. for 5 min and then was centrifuged at 500×g for 15 min to separate serum proteins. The supernatant was injected into the RP-HPLC, and the major peaks were collected. The peak's mass was determined using MALDI-TOF mass analysis. The serum stabilities of the D-aa KK-11 were determined by comparing the HPLC peaks (AUC) for the intact peptides at different time points.
For in vivo studies, peptide KK-11 was labeled with a fluorescent Vivotag 680 XL in the N-terminus (Scheme 1). In addition, two amino acids in the sequence (norleucine and arginine) were substituted with D-amino acids to increase proteolytic stability. These amino acids were identified as proteolytically labile sites. The D-aa KK-11 peptide was assembled on acid-labile Rink amide resin and was characterized. The proteolytic stability of the D-aa KK-11 peptide was evaluated by incubating with human serum. The presence of the intact peptide after incubation with human serum for different time periods was detected using RP-HPLC and confirmed by MALDI-TOF mass analysis. […] However, peptide KK-11 with all L-amino acids reduced to an undetectable level within 30 min (data not shown). For conjugating VivoTag 680 XL dye, the peptide was modified by incorporating a β-alanine moiety generating the precursor Aβ-KK-11. The structure and mass of Aβ-KK-11 were confirmed by NMR (^1H and ^13C) and MALDI-TOF [M+H]^+ 1588.5 Da. Next, the β-alanine terminal amino group was allowed to react with the succinimidyl ester group of the reactive fluorophore (VivoTag 680 XL) under basic conditions in polar aprotic solvent, generating the fluorescently labeled peptide with extrusion of N-hydroxysuccinimide (NHS) (Scheme 1). The mass of the fluorescence-labeled VivoTag-Aβ-KK-11 was confirmed by MALDI-TOF, showing a peak at 2823.4 Da, corresponding to [M+H]^+.

[2] = test system: human melanoma A375 tumor xenografts and organs; experiment: In vivo and ex vivo imaging of biodistribution in mice bearing A375 xenografts; set-up: species or system athymic nude mice; conditions: ex vivo imaging
Method: FIG. 4A and FIG. 4B-1 and FIG. 4B-2 show in vivo and ex vivo organ distribution images of VivoTag 680 XL-labeled D-aa KK-11 in athymic nude mice bearing human melanoma A375 tumors. Saline or VivoTag-KK-11 in a dose of 8 μg per mouse was injected into the mice via the tail vein (n=2 for each time point).
The top panels represent the scanned images of the tumor section area in coronal views. The bottom-row pictures display the fluorescence image in trans-axial views: arrows point to the spine, and circles mark the xenograft tumors.
Organs including tumor xenografts (T), liver (L), spleen (S), heart and lungs (H+L), kidneys (K), and brain (B) were excised and imaged using the IVIS Spectrum imaging system. Representative fluorescence images of different organs show peptide distribution at different time points as indicated.
Ex vivo and in vivo imaging. The study was carried out in compliance with Animal Research: Reporting of In Vivo Experiments (ARRIVE) guidelines. All the animal procedures were approved by the Institutional Animal Care and Use Committee (IACUC) at Chapman University and conducted in compliance with the policies of Chapman University, and federal, state, and local animal welfare authorities. Male and female athymic nude mice (4-6 weeks old) were kept (5 in each cage) in a pathogen-free environment. Approximately 10^6 human melanoma A375 cells (0.1 mL in normal saline), mixed with 0.1 mL cold Matrigel (#354248; Corning, Corning, NY), were injected subcutaneously in the flank. The tumor size was measured with a caliper, and body weight was recorded once a week. When the tumor size reached approximately 800-1000 mm^3 as calculated using the following formula: [Length×(Width^2)]/2 (in mm), mice were processed for in vivo or ex vivo imaging.
For in vivo imaging, normal saline or VivoTag-KK-11 at a dose of 8 μg per mouse was injected into the mice via the tail vein (n=2 for each time point). The animals were then scanned at different time intervals (0.5, 2, 6, and 24 h) using an IVIS Spectrum in vivo imaging system (PerkinElmer, Waltham, MA). The mice were imaged for 0.5 sec, 10 bin, level B at an emission wavelength of 688±5 nm. Imaging was limited to no more than once a day and was conducted under continuously maintained isoflurane. Mice were maintained on alfalfa-free diets to minimize the background fluorescence. All the study animals survived through the in vivo imaging procedure.
For ex vivo imaging at defined time intervals (5, 15, 30 min, followed by 1, 1.5, 2, 3, 4, 6, 24, and 48 h) following fluorescence conjugate injection, animals were euthanized via carbon dioxide inhalation (n=2 for each time point); tumor, liver, spleen, heart, lungs, brain, and kidneys were collected and briefly rinsed with saline. The organs were then imaged for 0.5 sec, 10 bin, level B at an emission wavelength of 688±5 nm using an IVIS Spectrum imaging system.

[3] = test system: human melanoma cell lines (A375, Sk-mel-28, wm115) compared to normal human HEK-293 cells; experiment: Peptide array-whole cell binding assay (CyQUANT fluorescence); assay type: cell-based; conditions: average fluorescent intensity of melanoma cells (A375, Sk-mel-28, wm115) bound to peptide divided by that of HEK-293 cells bound to same peptide
From the text: Peptide array synthesis. Fifty-three peptide sequences were synthesized in duplicate on derivatized cellulose membrane (Intavis, Germany) using a ResPep SL Autospot robot. The detailed method was explained previously (Ahmed et al. Anal Chem. 82:7533-7541, 2010; Hossein-Nejad-Ariani et al. Sci Rep. 9:2723, 2019). Briefly, the sequences of peptides were entered in the robot software, and 384 spot synthesis mode was selected for this library. First, the membrane was dipped in DMF for an hour followed by transfer and support to the holder of the robot on filter paper. Then the membrane was washed with ethanol and subjected to a vacuum to remove any bubbles under the membrane. The Fmoc strategy was used for peptide synthesis. DIC and Oxyma pure were used as coupling reagent and racemization suppressor, respectively. After each coupling, capping of unreacted amino acids was done using acetic anhydride (3%), followed by 20% piperidine for Fmoc deprotection. The C-terminal end of all peptides were bound to the membrane. Following the synthesis, the membrane was dipped in deprotection solution containing 15 mL TFA, 15 mL DCM, 900 μL TIPS, and 600 μL water, and kept for 3 h at room temperature. Next, membranes were thoroughly washed with DCM, DMF, and ethanol. Finally, they were air dried and kept in a sealed bag at −20° C. until use.
Peptide array cell binding assay. The sequential steps of the assay are as described in a previous publication (Ahmed et al. 2010; Soudy et al. J Med Chem. 54:7523-7534, 2011). The membrane was dipped in ethanol for 30 sec to remove any precipitation of hydrophobic peptides. Then the membrane was dipped in sterile PBS at pH 7.4 for 30 min. The cells (75×10^3 cells/mL) were seeded directly on the membrane in a sterile plate and incubated at 37° C. for 4 h. After washing off the unbound cells with sterile PBS, pH 7.4, the membrane was frozen at −80° C. for 2 h. Subsequently, it was defrosted at room temperature and incubated in CyQUANT solution at 37° C. for 30 min following the manufacturer's protocol. The membrane was then washed with sterile PBS and air-dried.
Membranes were scanned using the ChemiDoc™ XRS+system (Bio-Rad) to analyze the fluorescence intensity of each spot. The setting was adjusted based on the excitation and emission wavelength of the CyQUANT dye at 465 nm and 535 nm, respectively. The fluorescence intensity (FI) was normalized by the FI of non-cancerous HEK-293 cells.
A library of 53 peptides was synthesized in an array format on a cellulose membrane using SPOT synthesis (Table 1). The peptide library was designed starting with five lead cancer cell targeting peptides, Arg peptide (1, Table 1), p160 analogue (11), RGD (16), GE11 (20), and LSD (37). Conservative substitutions, deletion from the N- or C-terminus, alanine scan, and scrambling of amino acids were used to design the analogues for the library. The peptides were screened for specific binding to three human melanoma cell lines. The cells were incubated with the cellulose membranes with conjugated peptides followed by incubation with CyQUANT fluorescence dye. A brief schematic for the peptide array-whole cell binding assay for screening peptides with high affinity for melanoma cells is shown in FIG. 2A. The relative cell adhesion capacities of the peptides to A375 (FIG. 2B), Sk-mel-28 (FIG. 2C), and wm115 were estimated based on the fluorescence of the bound melanoma cells compared to normal human HEK-293 cells.

A375 melanoma cells = experiment: In vitro cytotoxicity detected by MTT colorimetric assay; assay type: cell-based, human; conditions: in vitro
Method: (§1) The bar represents the average fluorescence density of three cell lines (A375, Sk-mel-28, and wm3211 cells) detected by fluorescence-activated cell sorting (FACS) analysis. The cells were incubated with FITC-labeled peptide for […] at 37° C. (0.5 μM, grey bar; 1 μM, dark bar). The control is cells incubated with FITC alone. […] Cells were either treated with DOX or co-treated with DOX and KK-11 (1 μM) for 72 h (KK-11+DOX) or pretreated with KK-11 for 4 h, then washed away following a DOX 72 h treatment (KK-11 to DOX). Control is DMSO or KK-11 alone. Cell viability was detected by a MTT colorimetric assay. Statistical analysis was performed with a student's t-test, and error bars denote mean±SD; **, p<0.01; ***, p<0.001 compared to DOX alone. […] Cells were treated with MAC-3-190 at various concentrations with or without 1 μM KK-11 for 72 h. Cell viability was detected by MTT assay. The assays were repeated independently at least three times.
In vitro cytotoxicity detected by MTT colorimetric assay. Cells were seeded in a 96-well plate and allowed to adhere overnight prior to adding the compound. After 72 h of treatment in serum-free media, an MTT solution was added to each well to give a final concentration of 0.5 mg/mL and was incubated for 3 h. Formed crystals were solubilized, and the absorbance was measured at 595 nm.

[4] = test system: A375 human melanoma xenograft; experiment: In vivo xenograft melanoma mouse model
Method: FIG. 5A; the tumors were measured three times a week using digital Vernier calipers. Tumor volume (mm^3) was calculated as [Length×(Width^2)/2. […] FIG. 5C; the body weights of the mice were measured after 21 days of treatment. Statistical analysis was performed with student's t-test and error bars denote mean±SD: *, p<0.05 compared to control group.
In vivo xenograft melanoma mouse model. Nude mice (Nu/Nu) were purchased from Charles River (Wilmington, MA) and were housed and maintained in the Chapman University vivarium under pathogen-free conditions. A375 cells were suspended in cold Matrigel and injected subcutaneously into the flank of each mouse (1×10^6 cells per mouse) to establish tumors. […] For the co-treatment, the solution of D-aa KK-11 and MAC-3-190 (1:11 molar ratio) was mixed gently and incubated at room temperature for 30 min before injection via tail vein. The growth of the tumors was monitored three times a week and measured using digital Vernier calipers. The tumor volume (mm^3) was calculated as [Length×(Width^2)]/2 (in mm). The mice were sacrificed after 21 days per IACUC policy when the control group's average tumor size reached 2,000 mm^3. Tumor xenografts were removed and weighed.

[5] = test system: human primary glioma U87 cells; experiment: Binding to glioma cells (data not shown); assay type: cell-based
[6] = test system: human melanoma cells (wm3211, Sk-mel-28, A375); experiment: In vitro cellular uptake of FITC-labeled peptides by flow cytometry (FACS); assay type: cell-based; conditions: 0.5 and 1 μM
Method: as §1
In vitro cellular uptake analysis. The peptide (FITC-labeled) concentration was determined using a Shimadzu BioSpec-nano Micro-volume UV-Vis spectrophotometer (Shimadzu). Human melanoma cells (wm3211, Sk-mel-28, and A375) were incubated with FITC or FITC-labeled peptides at final concentrations of 0.5 μM and 1 μM for 2 h. […] The mean fluorescence density of 10,000 cells was analyzed and compared to that of control cells.

| remaining at 5 h, 100 µM ([1]; human serum (25% v/v in DMEM), 37° C., 5 h, read-out: area under the curve of the peptide peak, of control (t=0 h)) [%] | remaining at 24 h, 100 µM ([1]; human serum (25% v/v in DMEM), 37° C., 24 h, read-out: area under the curve of the peptide peak / peptide remaining, of control (t=0 h)) [%] | area under the curve of the peptide peak / peptide remaining, of control (t=0 h) ([1]; human serum, 37° C., 24 h) [%] | time at which fluorescence is evident in tumor xenografts ([2]; 8 μg per mouse, tail vein) [min] | time fluorescence remained detectable in tumor xenografts ([2]; single tail vein injection) | Molecule | Fluorescence Ratio [3] | time until reduced to an undetectable level ([1]; human serum, data not shown) [min] | cytotoxicity of peptide alone (A375 melanoma cells) | toxicity of peptide alone in vivo [4] | binding to U87 cells [5] | uptake by melanoma cells (in words) [6] |
| --- | --- | --- | --- | --- | --- | --- | --- | --- | --- | --- | --- |
| 97.4 | 45.3 | 45.3 | ≤ 5 | up to 24 h | CCCC[C@@H](NC(=O)[C@H](Cc1c[nH]c2ccccc12)NC(=O)[C@@H]1CCCN1C(=O)[C@@H](N)C(C)C)C(=O)N[C@@H](CCC(=O)O)C(=O)N1CCC[C@H]1C(=O)N[C@@H](C)C(=O)N[C@@H](Cc1ccc(O)cc1)C(=O)N[C@@H](CCC(N)=O)C(=O)N[C@H](CCCNC(=N)N)C(=O)N[C@@H](Cc1ccccc1)C(=O)N[C@@H](CC(C)C)C(N)=O [D-aa KK-11, VPWxEPAYQrFL] (HELM PEPTIDE1{V.P.W.[CCCC[C@@H](N[*:1])C(=O)[*:2]].E.P.A.Y.Q.[dR].F.L.[am]}$$$$V2.0; N-terminus assumed) |  |  |  |  |  |  |
|  |  |  |  |  | VPWXEPAYQRFL [Peptide 11, X stands for norleucine] | 1.80 | ≤ 30 | No cytotoxicity | No cytotoxicity | can also bind |  |
|  |  |  |  |  | GRRPRPRPRP [Peptide 1, FITC-labeled (β-alanine spacer) in the uptake study] | 1.82 |  |  |  |  | significantly increased uptake |
